The text below walks through data of publication PMC11726677, “Eradication of Therapy-Resistant Cancer Stem Cells by Novel Telmisartan Derivatives” (Journal of Medicinal Chemistry, 2024).

Molecules are shown by their SMILES. Some results are limits rather than exact numbers.

Data set [1] can be described thus: Turbidimetric aqueous solubility. Format: physicochemical. As to conditions: phosphate buffered saline, estimated precipitation range, PBS pH 7.4, 37 °C.
Data set [2] has as its system PC3-DR cells (ABCB1+). Briefly: SP analysis (DCV, flow cytometry) in PC3-DR cells. Format: cell-based, human. The note with it: 10 μM. The source says:
(§1) In recent studies, we described the side population (SP) phenotype as a marker that defines a heterogeneous cellular compartment with stem cell-characteristics in various cancer cell lines derived from solid tumors, such as ovarian cancer, breast cancer, and lung cancer.[26],[27]

Data set [3] concerns IGROV-1 SP cells (ABCB1+). Briefly: SP analysis (DCV, flow cytometry) in IGROV-1 SP cells. It counts as cell-based, human. The note with it: 10 μM.
From the text: as §1

Data set [4] concerns A2780 V SP cells (ABCB1+). Kind of data set: SP analysis (DCV, flow cytometry) in A2780 V SP cells. It counts as cell-based, human. The note with it: 10 μM.
From the text: as §1

Data set [5] has as its system PC3-DR cells. Briefly: Chemosensitizing to docetaxel: metabolic activity of PC3-DR cells (MTT). It counts as cell-based, human. The note with it: compound 10 μM + DTX 12.5 nM, 72 h. How it is done: (§2) The chemosensitizing efficacy was investigated in the ovarian and prostate cancer cell lines using the above-described metabolic activity assay. Paclitaxel (PTX) served as a reference (CTR) in A2780 V SP and IGROV-1 SP cells and docetaxel (DTX) in PC3-DR and D145-DR cells.
(§3) COS-7 (2 × 10^3 cells per well), IGROV-1 SP (2.5 × 10^3 cells per well), A2780 V SP (1.5 × 10^3 cells per well), PC3-DR (4 × 10^3 cells per well), and DU145-DR (3 × 10^3 cells per well) cells were seeded in 96-well plates in triplicates and after 24 h, the compounds were added at the respective concentrations. K562-R and K562 cells (2 × 10^4 cells per well), were treated with the compounds 2 h after seeding. […] A modified MTT colorimetric assay (EZ4U kit, Biomedica) was used to determine the metabolic activity of the tested cells, according to the manufacturer’s instructions. Absorbance was measured and the optical density of the respective FCS-containing medium and of the substrate was subtracted to exclude nonspecific staining. Metabolic activity in the absence of the compounds (CTR, DMSO) was set to 100% as reference.

For data set [6], the system named is K562-R cells. Kind of data set: Chemosensitizing: metabolic activity of K562-R cells cotreated with imatinib (modified MTT assay). The note with it: for chemosensitizing effect, concentration-dependent analysis: 0.5–8 μM (transporter inhibitors 10 to 0.5 μM); for rate of imatinib-triggered cell death: at 10 μM; for metabolic activity of K562-R cells, combination with imatinib: compound 10 μM + imatinib 1 μM. It counts as cell-based, human. How it is done:
The potential reduction in cell viability was determined using the modified MTT assay.
conc. 10 to 0.5 μM) over 72 h (Figure 3D).
as §3

A short description of data set [7]: Microsomal metabolic stability, mouse. It counts as in vitro ADME. The note with it: for metabolic stability Mouse, % of compound remaining: after 30 min in MLM, 1 μM; for half-life at 1 µM: mouse, pooled mouse liver microsomes, pH 7.4, MLM, read-out: metabolic stability Mouse t1/2. On the procedure:
(§4) The stability of the compounds was assessed in pooled human and mouse liver microsomes (final protein concentration 0.5 mg/mL). […] At the appropriate time points, the reactions were stopped by transferring into acetonitrile. After protein precipitation, by centrifugation at 3000 rpm for 20 min at 4 °C, the sample supernatants were analyzed using LC–MS/MS analysis (control compounds were included). The elimination rate constant was determined from the ratio of the ln peak area to time. Half-life (t1/2) and intrinsic clearance (CLint) were calculated using the appropriate formulas.

The target of data set [8] is ABCB1 transporter in K562-R cells (Homo sapiens, UniProt P08183). Kind of data set: Side population (SP) analysis, DCV staining, flow cytometry. The note with it: 10 μM.
Method: SP analyses were performed as previously described[45] on a LSRFortessa flow cytometer (BD Biosciences, Vienna, Austria). Briefly, 1 × 10^6 cells/mL were stained with 10 μM Vybrant DyeCycleTM Violet (DCV; Molecular Probes, Eugene, OR) in the presence or absence of the investigated compounds for 90 min at 37 °C. […] Subsequently, the cells were washed and immediately analyzed using flow cytometry. The FlowJo 9.6 software was used for data analyses (Tree Star Software, Ashland, CA).
The nature of data set [9]: Microsomal metabolic stability, human. It counts as in vitro ADME. The note with it: for metabolic stability Human, % of compound remaining: after 30 min in HLM, 1 μM; for half-life at 1 µM: human, pooled human liver microsomes, pH 7.4, HLM, read-out: metabolic stability Human t1/2. On the procedure:
as §4

In data set [10] the test system is DU145-DR cells (ABCB1+). Kind of data set: SP analysis (DCV, flow cytometry) in DU145-DR cells. Format: cell-based, human. As to conditions: 10 μM.
From the text: as §1

For data set [11], the system named is Caco2 cells. Kind of data set: Caco2 permeability (bidirectional). Format: in vitro ADME. The note with it: pH 7.4, 10 μM; for Caco2 permeability Papp B–A: basolateral to apical. How it is done:
The medium was changed regularly and on day 20 the permeability study was performed. The monolayers were prepared by rinsing the apical and basolateral surfaces with Hanks Balanced Salt Solution (HBSS) twice at the desired pH and by incubating for 40 min to stabilize the physiological parameters. […] The compounds were diluted with buffer to a concentration of 10 μM (final DMSO concentration ≤1%) and added to the apical or basolateral sides of the cell monolayer. Compound permeability was assessed in duplicates and molecules of known permeability characteristics were used as controls (antipyrine, atenolol, talinolol, and estrone 3-sulfate). To calculate Papp, compound appearance was measured using LC–MS/MS. The efflux ratio was determined for bidirectional assays.

The test system of data set [12] is primary human CML patient samples. Kind of data set: Colony forming cell (CFC) assay, primary CML patient samples. Format: cell-based. The note with it: together with 1 μM of imatinib, once at the beginning of the 14 day assay; compound 10 μM. The source says: Frozen peripheral blood mononuclear cells (PBMC) from TKI naïve CML patients and healthy controls were used for the CFC assay as described previously.[46] Briefly, thawed cells were resuspended a semisolid medium (Enriched MethocCult H4435, Stem Cell Technologies) supplemented with the respective compounds and cultured in small culture dishes for 2 weeks. Colonies were counted using an inverted microscope.

The nature of data set [13]: Hepatocyte stability, mouse. Format: in vitro ADME. As to conditions: for half-life at 1 h, 1 µM / hepatocyte CLint at 1 h, 1 µM: mouse, cryopreserved mouse hepatocytes; for half-life at 1 h, 1 µM: read-out: hepatocytic stability mouse t1/2; for hepatocyte CLint at 1 h, 1 µM: after 60 min in MH, read-out: hepatocytic stability mouse, CLint. On the procedure: (§5) Cryopreserved hepatocytes (human and mouse) were used to analyze the stability of the compounds. Hepatocytes (0.5 × 10^6 cells/mL in Williams E medium supplemented with 2 mM L-glutamine and 25 mM N-2-hydroxyethylpiperazin-Ń-ethanesulfonic acid (HEPES)) were preincubated at 37 °C. […] At the appropriate time points, the reactions were stopped by transferring into acetonitrile. After protein precipitation by centrifugation at 3000 rpm for 20 min at 4 °C, the sample supernatants were analyzed by LC–MS/MS analysis (control compounds were included). The elimination rate constant was determined from the ratio of the ln peak area to time. Half-life (t1/2) and intrinsic clearance (CLint) were calculated using the appropriate formulas.

Data set [14] is described as follows: Hepatocyte stability, human. As to conditions: for half-life at 1 h, 1 µM / hepatocyte CLint at 1 h, 1 µM: human, cryopreserved human hepatocytes; for half-life at 1 h, 1 µM: read-out: hepatocytic stability human t1/2; for hepatocyte CLint at 1 h, 1 µM: after 60 min in HH, read-out: hepatocytic stability human, CLint. Format: in vitro ADME. How it is done:
as §5

The test system of data set [15] is DU145-DR cells. Briefly: Chemosensitizing to docetaxel: metabolic activity of DU145-DR cells (MTT). It counts as cell-based, human. As to conditions: compound 10 μM + DTX 12.5 nM, 72 h. On the procedure:
as §2, §3

Chain of ABCB1 transporter in K562-R cells (P08183 whole entry): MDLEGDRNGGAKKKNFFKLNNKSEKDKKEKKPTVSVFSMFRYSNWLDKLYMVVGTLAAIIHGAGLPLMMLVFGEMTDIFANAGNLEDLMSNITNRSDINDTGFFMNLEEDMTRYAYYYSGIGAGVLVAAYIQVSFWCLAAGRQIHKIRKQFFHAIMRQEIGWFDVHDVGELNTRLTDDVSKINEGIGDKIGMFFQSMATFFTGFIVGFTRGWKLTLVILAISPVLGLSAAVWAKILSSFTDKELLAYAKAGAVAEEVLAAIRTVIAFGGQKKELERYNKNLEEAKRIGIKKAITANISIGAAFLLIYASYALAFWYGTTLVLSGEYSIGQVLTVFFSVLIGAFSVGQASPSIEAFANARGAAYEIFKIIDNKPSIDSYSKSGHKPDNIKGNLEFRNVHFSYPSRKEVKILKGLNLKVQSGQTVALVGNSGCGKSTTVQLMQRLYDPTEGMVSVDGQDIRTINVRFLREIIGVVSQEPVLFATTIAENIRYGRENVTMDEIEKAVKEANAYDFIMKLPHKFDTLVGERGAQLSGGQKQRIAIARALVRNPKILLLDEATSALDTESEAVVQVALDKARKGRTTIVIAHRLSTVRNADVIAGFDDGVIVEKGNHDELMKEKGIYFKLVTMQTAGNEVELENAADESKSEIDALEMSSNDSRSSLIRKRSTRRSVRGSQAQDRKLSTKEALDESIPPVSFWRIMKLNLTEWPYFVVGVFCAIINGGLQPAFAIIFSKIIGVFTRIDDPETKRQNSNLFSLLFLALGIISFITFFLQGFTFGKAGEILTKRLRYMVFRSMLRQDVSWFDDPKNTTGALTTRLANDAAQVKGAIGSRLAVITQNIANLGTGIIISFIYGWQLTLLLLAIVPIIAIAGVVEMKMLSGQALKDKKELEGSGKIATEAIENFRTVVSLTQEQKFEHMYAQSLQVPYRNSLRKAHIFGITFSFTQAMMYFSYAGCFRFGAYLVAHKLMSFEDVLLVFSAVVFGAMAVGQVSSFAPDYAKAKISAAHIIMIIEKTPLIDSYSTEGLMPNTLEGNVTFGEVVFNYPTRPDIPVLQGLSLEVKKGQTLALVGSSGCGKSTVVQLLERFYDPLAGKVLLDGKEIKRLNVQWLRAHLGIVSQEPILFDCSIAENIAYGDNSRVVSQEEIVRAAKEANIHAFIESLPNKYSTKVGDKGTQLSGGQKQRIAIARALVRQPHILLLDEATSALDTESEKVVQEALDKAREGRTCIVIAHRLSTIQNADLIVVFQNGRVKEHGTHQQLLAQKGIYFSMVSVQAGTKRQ

For the compound `CCCc1nc2c(C)cc(-c3nc4ccccc4n3C)cc2n1Cc1ccc(-c2ccccc2C(=O)OC)cc1` [7b, Methyl 4′-((1,7′-dimethyl-2′-propyl-1H,3′H-[2,5′-bibenzo[d]imidazole]-3′-yl)methyl)-[1,1′-biphenyl]-2-carboxylate], in [1], the solubility at 2 h was less than 6.5 µM. Moreover, the “effect on SP phenotype” value in [2], in data set [3], in [4] and in data set [10] was “eliminated the SP phenotype” in each case. Besides, the “chemosensitizing to DTX (antimetabolic activity)” value was “only marginally increased the antimetabolic activity of DTX” in [5]; “produced the same effects as 5c and 6c” in data set [15]. Moreover, the “chemosensitizing effect, concentration-dependent analysis” value in data set [6] (K562-R, + imatinib 1 μM, 72 h) is “strongly sensitized the cells to imatinib therapy”. The “rate of imatinib-triggered cell death” value in [6] (K562-R) is greater than 85%. The “metabolic activity of K562-R cells, combination with imatinib” value in data set [6] (72 h) is 8–24%. Moreover, the “metabolic stability Mouse, % of compound remaining” value in data set [7] amounted to 3%. The figures for the half-life at 1 µM in [7] and in data set [9] were 6 min and 16.2 min, respectively. Also, the “effect on SP phenotype / ABCB1 activity” value in [8] is “completely repressed the SP phenotype”. In addition, in [9], the “metabolic stability Human, % of compound remaining” value is 26.3%. Moreover, in data set [11] (apical to basolateral), the “Caco2 permeability Papp A–B” value is reported as 0.1 10^–6 cms^–1. Besides, in data set [11], the “Caco2 permeability Papp B–A” value is 0.2 10^–6 cms^–1. Also, the “number of colonies (CFC)” value in data set [12] was “significantly reduced the number of colonies”. Moreover, the half-life at 1 h, 1 µM was found to be 13.8 min in data set [13] (MH) and 18.4 min in data set [14] (HH). In addition, the hepatocyte CLint at 1 h, 1 µM in data set [13] worked out at 101 µL/min/1e6 cells; in data set [14], 75.2 µL/min/1e6 cells.

In the case of `CCCc1nc2c(C)cc(-c3nc4ccccc4n3C)cc2n1Cc1ccc(-c2ccccc2C(N)=O)cc1` [7c, 4′-((1,7′-Dimethyl-2′-propyl-1H,3′H-[2,5′-bibenzo[d]imidazole]-3′-yl)methyl)-[1,1′-biphenyl]-2-carboxamide], the solubility at 2 h in data set [1] was less than 6.5 µM. Besides, the “effect on SP phenotype” value in data set [2], in [3], in data set [4] and in [10] was “eliminated the SP phenotype” throughout. The “chemosensitizing to DTX (antimetabolic activity)” value in data set [5] and in data set [15] was “most active chemosensitizer” each time. The “chemosensitizing effect, concentration-dependent analysis” value in data set [6] (K562-R, + imatinib 1 μM, 72 h) is on record as “strongly sensitized the cells to imatinib therapy”. Moreover, in data set [6] (K562-R, + imatinib 1 μM, 72 h, read-out: SC50 (drug concentration eliciting 50% of the maximum sensitizing effect)), the EC50 was 1850 nM. Also, the “rate of imatinib-triggered cell death” value in data set [6] (K562-R) is recorded as greater than 85%. The “metabolic activity of K562-R cells, combination with imatinib” value in [6] (72 h) is 8–24%. For the same compound, the “metabolic stability Mouse, % of compound remaining” value in data set [7] turned out to be 13.3%. The figures for the half-life at 1 µM in data set [7] and in data set [9] were 8.8 min and 45.1 min, respectively. Further, the “effect on SP phenotype / ABCB1 activity” value in data set [8] was “completely repressed the SP phenotype”. Further, the “metabolic stability Human, % of compound remaining” value in data set [9] was determined as 58.1%. Besides, the “Caco2 permeability Papp B–A” value in data set [11] is reported as 30.8 10^–6 cms^–1. Further, the “number of colonies (CFC)” value in data set [12] is “significantly reduced the number of colonies”. The clearance class entry is reported as “high clearance” in data set [13] (MH) and “medium clearance” in data set [14] (HH). The half-life at 1 h, 1 µM in data set [13] (MH) was 44.9 min; in data set [14] (HH), 100 min. Further, the results for the hepatocyte CLint at 1 h, 1 µM in data set [13] and in data set [14] were 30.9 µL/min/1e6 cells and 13.8 µL/min/1e6 cells, respectively.
